Experimental data: patent US8236824B2, “N-(pyrazole-3-yl)-benzamide derivatives as glucokinase activators” (Merck Patent Gesellschaft mit Beschränkter Haftung, priority 2007, dated 2012)

What follows are compounds tested against T1, glucokinase (GK), human enzyme (Homo sapiens, UniProt P35557) (assay: Glucokinase Activation Screening Assay (coupled enzyme assay with PK/LDH, NADH decline at 340 nm)). Conditions: 2 mM glucose.
T1 sequence (P35557 1-465): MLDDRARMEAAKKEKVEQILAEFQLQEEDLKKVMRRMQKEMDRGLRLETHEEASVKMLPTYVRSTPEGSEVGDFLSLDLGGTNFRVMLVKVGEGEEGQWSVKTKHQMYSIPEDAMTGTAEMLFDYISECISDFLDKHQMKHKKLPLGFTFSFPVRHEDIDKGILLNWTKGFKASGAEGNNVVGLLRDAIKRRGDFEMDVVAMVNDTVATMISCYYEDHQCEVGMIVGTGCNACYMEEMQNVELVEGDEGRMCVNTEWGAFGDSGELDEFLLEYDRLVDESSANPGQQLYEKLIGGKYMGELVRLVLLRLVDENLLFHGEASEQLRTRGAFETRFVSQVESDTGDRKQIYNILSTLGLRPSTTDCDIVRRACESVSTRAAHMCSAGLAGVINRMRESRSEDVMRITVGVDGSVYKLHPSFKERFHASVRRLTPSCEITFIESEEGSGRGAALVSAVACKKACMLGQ
Assay type: biochemical
Description: Glucokinase Activation Screening Assay
GK activity (human or rat enzyme) is measured by an coupled enzyme assay using pyruvate kinase (PK) and lactate dehydrogenase (LDH) as coupling enzymes. GK activity is calculated from the decline in NADH monitored photometrically with a microliter plate (MTP) reader at 340 nm. For screening purposes, the GK assay is routinely run in a 384-MTP format, in a total volume of 33 μl/well. 10 μl of the ATP-regeneration solution (in HEPES-buffer*, pH 7.0, 6.73 U/ml pyruvate kinase, 6.8 U/ml lactate dehydrogenase) and 10 μl of the glucokinase-/glucose solution (15 μg/ml, 6.6 mM glucose in HEPES-buffer*, pH 7.0; the concentration of the glucose stock-solution was 660 mM in Millipore H2O) were mixed together with 3 μl of a 10% DMSO solution (in HEPES-buffer*, pH 7.0) containing […] the amounts of the compounds to achieve final compound concentrations in the range between 1 nM to 30 μM (sometimes 300 μM) in the assay solution (s. below). The solutions were mixed for 5 sec, and after a centrifugation at 243×g for 5 min, the solutions were preincubated for 25 min at room temperature.
The reaction was started by the addition of 10 μl of the NADH-/ATP-solution (4.29 mM NADH, 4.95 mM ATP, in HEPES-buffer*). The MTP was shaken for 5 sec., and then, the absorbance at 340 nm was monitored continuously in a MTP-reader (TECAN Spectro fluor plus) for the next 27 min (with a MTP-cycling time of 199 sec.). The final concentrations of the various components were as follows: 49.5 mM Hepes, pH 7.0, 1.49 mM PEP, 1.3 mM NADH, 49.5 mM KCl, 4.96 mM MgCl2, 1.5 mM Mg-ATP, 1.98 mM DTT, 2.04 U/ml pyruvate kinase, 2.06 U/milactate-dehydrogenase, 0.91% DMSO, 0.15 μg/well glucokinase, and test compounds in the range between 1 nM and 300 μM.
The change in the optical density (ΔOD340 nm) in the presence of the compound was expressed relative to the ΔOD340 nm, ctrl of the control incubation (in the presence of 2 mM glucose and 0.91% DMSO), taking into account the optical density of the blank sample (incubation in the absence of 2 mM glucose). For the determination of the half maximal effective concentration (EC50), the %-Ctrl-values were plotted in a semi-logarithmic graph against the conc. of the compound of interest. The data points were fitted to a sigmoid curve function (f(x)=((%-Ctrlmax-%-Ctrlmin)/(1−(EC50/x**^n(Hill)))%-Ctrlmin)) by a non-linear regression analysis. • Hepes-buffer (50 mM Hepes, pH 7.0, 5 mM MgCl2, 50 mM KCl, 1.5 mM PEP, 0.1% BSA). DTT was added to the Hepes-buffer from a 200× stock solution (in Millipore H2O) freshly each day. The final concentration of DTT in the Hepes-buffer is 2 mM. Culture of Pancreatic INS-1 Cells

| SMILES | EC50 [nM] |
| --- | --- |
| Cc1cc(NC(=O)c2cc(OCc3ccccc3)cc(OC(C)C)c2)nn1Cc1ccccn1 [A2, 3-Benzyloxy-5-isopropoxy-N-(5-methyl-1-pyridine-2-ylmethyl-1H-pyrazole-3-yl)-benzamide] | 1000 to 10000 |
| COC[C@H](C)Oc1cc(O[C@@H](C)Cc2ccccc2)cc(C(=O)Nc2ccn(Cc3cccnc3)n2)c1 [A7, 3-((S)-2-methoxy-1-methyl-ethoxy)-5-((S)-1-methyl-2-phenyl-ethoxy)-N-(1-pyridine-3-ylmethyl-1H-pyrazole-3-yl)-benzamide] | 10 to 1000 |
| CC(C)Oc1cc(OCc2ccccc2)cc(C(=O)Nc2ccn(Cc3ccccc3)n2)c1 [A3, 3-Benzyloxy-N-(1-benzyl-1H-pyrazol-3-yl)-5-isopropoxy-benzamide] | 10 to 1000 |
| CC(C)Oc1cc(OCc2ccccc2)cc(C(=O)Nc2ccn(Cc3ccccn3)n2)c1 [A1, 3-Benzyloxy-5-isopropoxy-N-(1-pyridine-2-ylmethyl-1H-pyrazol-3-yl)-benzamide] | 1000 to 10000 |
| CC(C)Oc1cc(OCCc2ccsc2)cc(C(=O)Nc2ccn(Cc3ccccn3)n2)c1 [A6, 3-isopropoxy-N-(1-pyridine-2-ylmethyl-1H-pyrazole-3-yl)-5-(2-thiophene-3-yl-ethoxy)-benzamide] | 10 to 1000 |
| COC[C@H](C)Oc1cc(O[C@@H](C)Cc2ccccc2)cc(C(=O)Nc2ccn(Cc3ccccn3)n2)c1 [A5, 3-((S)-2-Methoxy-1-methyl-ethoxy)-5-((S)-1-methyl-2-phenyl-ethoxy)-N-(1-pyridine-2-ylmethyl-1H-pyrazole-3-yl)-benzamide] | 10 to 1000 |
| COC[C@H](C)Oc1cc(O[C@@H](C)Cc2ccccc2)cc(C(=O)Nc2ccn(Cc3ccncc3)n2)c1 [A8, 3-((S)-2-methoxy-1-methyl-ethoxy)-5-((S)-1-methyl-2-phenyl-ethoxy)-N-(1-pyridine-4-ylmethyl-1H-pyrazole-3-yl)-benzamide] | 10 to 1000 |
| COC[C@H](C)Oc1cc(O[C@@H](C)Cc2ccccc2)cc(C(=O)Nc2ccn(Cc3ccccc3)n2)c1 [A4] | 10 to 1000 |
| COC[C@H](C)Oc1cc(Oc2ccc(S(C)(=O)=O)cc2)cc(C(=O)Nc2ccn(Cc3cccnc3)n2)c1 [A10] | 10 to 1000 |
| CC(C)Oc1cc(OCCc2ccsc2)cc(C(=O)Nc2ccn(Cc3ccccc3)n2)c1 [A9, N-(1-Benzyl-1H-pyrazol-3-yl)-3-isopropoxy-5-(2-thiophen-3-yl-ethoxy)-benzamide] | 10 to 1000 |
